From PMC5986654, “Combined HAT/EZH2 modulation leads to cancer-selective cell death” (Oncotarget, 2018)

Key:
NB4 cells = assay: NB4 leukemia xenograft, human CD45+ cells in bone marrow; format: in vivo, mice; conditions: 1 mg/kg i.p., day 16
Protocol: Xenograft studies using NB4 and U937-AML cells were performed in NOG SCID mice under specific pathogen–free conditions. Cells (0.2 × 10^6 in 100 µL) were injected intravenously (retro orbital vein). Injected mice were randomly assigned to receive intra-peritoneal MC2884 (1 mg/kg) or vehicle for two weeks (8 doses) (10 mice per group). All animal procedures were performed in accordance with protocols approved by the local Committee for Animal Experimentation and with the permission of the Italian Health Ministry (n° 626/2015). At 16 days after injection, mice were sacrificed and the femurs and spleens were collected. Bone marrow (BM) and spleen cells were analyzed by FACS. To avoid non-specific stain, cells were mixed with mouse IgG and incubated with indicated antibodies for 30’. The mixture was depleted of erythrocytes and fixed (BD Pharmingen). […] Tumor growth was monitored by weekly bioluminescence imaging (BLI) acquisitions using an IVIS 3D Imaging System (Caliper Alameda, USA). To quantify bioluminescence, the integrated fluxes of photons (photons per s) within each area of interest were determined using the Living Images Software Package 3.2 (Caliper, Alameda, USA). […] Efficacy of drug treatment was assessed as inhibition of BLI emission comparing those MC2884 treated mice group and vehicle groups.

CYP2C9 = target: T1, CYP2C9 (Homo sapiens, UniProt P11712); assay: Cytochrome P450 inhibition, CYP2C9; format: in vitro ADME; conditions: human liver microsomes, probe tolbutamide
T1 construct: from tissue; host or cells: human liver microsomes
T1 sequence (P11712 whole entry): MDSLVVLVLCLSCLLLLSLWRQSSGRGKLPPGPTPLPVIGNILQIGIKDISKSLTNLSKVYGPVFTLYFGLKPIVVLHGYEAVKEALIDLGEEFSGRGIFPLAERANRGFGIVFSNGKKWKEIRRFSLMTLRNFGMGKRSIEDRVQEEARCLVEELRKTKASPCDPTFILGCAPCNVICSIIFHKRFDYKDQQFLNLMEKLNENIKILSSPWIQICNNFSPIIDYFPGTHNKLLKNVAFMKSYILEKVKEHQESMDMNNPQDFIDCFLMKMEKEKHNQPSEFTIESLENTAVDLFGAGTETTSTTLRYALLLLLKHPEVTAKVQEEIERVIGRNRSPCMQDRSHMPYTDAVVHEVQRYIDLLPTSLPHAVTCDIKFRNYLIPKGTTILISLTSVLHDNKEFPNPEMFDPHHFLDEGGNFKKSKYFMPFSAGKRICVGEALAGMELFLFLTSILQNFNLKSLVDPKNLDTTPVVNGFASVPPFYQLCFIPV
Protocol: (§1) This provided a dose of 2 mg free base material/kg when Cytochrome p450 inhibition (5 isoform iC50 administered iv in a 5 mL/kg dosing volume. determination) mouse terminal ip pK study ADME-Tox Cytochrome P450 inhibition of Compound MC2884 was given ip at a dose of 2 mg/kg MC2884 using human liver microsomes as an estimation to a group of 24 normally fed male CD1 mice in a 10 mL/ of in vitro metabolism. kg injection volume. Terminal blood samples (> 230 μL) MC2884 (0.1 μM–25 μM) was incubated with were taken under CO2 from groups of 3 mice at each of 8 human liver microsomes and NADPH in the presence time-points post dose (0.083, 0.25, 0.5, 1, 2, 4, 8 and 24 h) of a cytochrome P450 isoform-specific probe substrate. and placed into heparinized tubes. […]
(§2) All samples were stored at −20° C measuring the formation of a fluorescent metabolite. […]
(§3) Cyp2C19 inhibition (0.1 mg/mL) and NADPH (1 mM) in the presence of the probe substrate midazolam (2.5 μM) for 5 min at Six test compound samples at concentrations 37° C. […] For the CYP1A incubations, the reactions microsomes (0.5 mg/mL) and NADPH (1 mM) in the were terminated by methanol, and the formation of the presence of the probe substrate mephenytoin (25 μM) metabolite, resorufin, was monitored by fluorescence for 60 min at 37° C. […]

CYP2C19 = target: T2, CYP2C19 (Homo sapiens, UniProt P33261); assay: Cytochrome P450 inhibition, CYP2C19; format: in vitro ADME; conditions: human liver microsomes, probe mephenytoin
T2 construct: from tissue; host or cells: human liver microsomes
T2 sequence (P33261 whole entry): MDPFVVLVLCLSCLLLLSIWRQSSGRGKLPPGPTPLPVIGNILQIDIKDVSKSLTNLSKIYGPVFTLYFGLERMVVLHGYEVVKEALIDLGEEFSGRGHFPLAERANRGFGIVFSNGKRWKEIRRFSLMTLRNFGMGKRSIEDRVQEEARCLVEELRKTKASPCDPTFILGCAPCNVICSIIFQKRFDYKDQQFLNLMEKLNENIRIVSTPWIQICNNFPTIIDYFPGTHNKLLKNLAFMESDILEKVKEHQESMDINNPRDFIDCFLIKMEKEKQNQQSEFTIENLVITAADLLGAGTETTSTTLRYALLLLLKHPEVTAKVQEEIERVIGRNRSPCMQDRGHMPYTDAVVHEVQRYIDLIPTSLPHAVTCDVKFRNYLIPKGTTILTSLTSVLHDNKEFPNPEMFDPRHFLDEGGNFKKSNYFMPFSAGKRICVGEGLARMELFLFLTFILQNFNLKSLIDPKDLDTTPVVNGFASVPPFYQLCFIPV
Protocol: as §1, §2, §3

SMILES: O=C1/C(=C/c2cccc(Br)c2)CN(Cc2ccccc2)C/C1=C\c1cccc(Br)c1 [MC2884]
- human CD45+ cells in the bone marrow reduced to (NB4 cells): 17%
- IC50 (CYP2C9): > 25 µM
- IC50 (CYP2C19): > 25 µM
